Counter-ions that a name gives are not always drawn.

From US7071180B2, “Certain arylaliphatic and heteroaryl-aliphatic piperazinyl pyrazines and their use in the treatment of serotonin-related diseases” (Biovitrum AB, priority 1999, dated 2006) come the findings set out here.

Compound `N#Cc1ccccc1OCCOc1nccnc1N1CCNCC1` (as salt: maleate) [Example 96, 2-(2-Cyanophenoxy)ethyl 3-(1-piperazinyl)-2-pyrazinyl ether] registered a melting point of 165 to 166 °C.

`Fc1cccc(OCCOc2nccnc2N2CCNCC2)c1` (as salt: maleate) [Example 101, 2-[2-(3-Fluorophenoxy)ethoxy]-3-(1-piperazinyl)pyrazine] displayed a melting point of 141 to 143 °C.

`OCc1cccc(OCCOc2nccnc2N2CCNCC2)c1` (as salt: maleate) [Example 108, [3-(2-{[3-(1-piperazinyl)-2-pyrazinyl]oxy}ethoxy)phenyl]methanol] registered a melting point of 123.2 to 123.5 °C.

Consider `COCc1cccc(OCCOc2nccnc2N2CCNCC2)c1` (as salt: maleate) [Example 109, 2-{2-[3-(Methoxymethyl)phenoxy]ethoxy}-3-(1-piperazinyl)pyrazine], for which the melting point was 114 to 115 °C.

Take `NC(=O)c1cccc(OCCOc2nccnc2N2CCNCC2)c1` (as salt: maleate) [Example 110, 3-(2-{[3-(1-piperazinyl)-2-pyrazinyl]oxy}ethoxy)benzamide]: the melting point lay in the range of 134 to 137 °C.

The compound `c1ccc(Nc2ccc(OCCOc3nccnc3N3CCNCC3)cc2)cc1` (as salt: maleate) [Example 111, N-Phenyl-4-(2-{[3-(1-piperazinyl)-2-pyrazinyl]oxy}ethoxy)aniline] gave a melting point of 132 to 133 °C.

As to `CC(=O)Nc1cccc(OCCOc2nccnc2N2CCNCC2)c1` (as salt: maleate) [Example 119, 2-[2-(3-Acetamidophenoxy)ethoxy]-3-(1-piperazinyl)pyrazine], the melting point was 154 to 155 °C.

`OCCOc1ccc(OCCOc2nccnc2N2CCNCC2)cc1` (as salt: maleate) [Example 120, 2-[4-(2-{[3-(1-piperazinyl)-2-pyrazinyl]oxy}ethoxy)phenoxy]ethanol] displayed a melting point of 127 to 129 °C.

The compound `c1cncc(CCCOc2nccnc2N2CCNCC2)c1` (as salt: maleate) [Example 126, 2-(1-piperazinyl)-3-[3-(3-pyridinyl)propoxy]pyrazine] displayed a melting point of 128 to 130 °C.

In the case of `c1cc(CCCOc2nccnc2N2CCNCC2)ccn1` (as salt: maleate) [Example 127, 2-(1-piperazinyl)-3-[3-(4-pyridinyl)propoxy]pyrazine], the melting point lay in the range of 90 to 91 °C.

Compound `Cc1cccc(CCCOc2nccnc2N2CCNCC2)n1` (as salt: maleate) [Example 128, 2-[3-(6-Methyl-2-pyridinyl)propoxy]-3-(1-piperazinyl)pyrazine] came in with a melting point of 134 to 136 °C.

As to `c1cc(OCCOc2nccnc2N2CCNCC2)c2ccncc2c1` (as salt: maleate) [Example 134, 2-(5-Isoquinolinyloxy)ethyl 3-(1-piperazinyl)-2-pyrazinyl ether], the melting point was in the range of 178 to 180.5 °C.

As to `c1cc(OCCOc2nccnc2N2CCNCC2)c2cccnc2c1` (as salt: maleate) [Example 135, 2-(5-Quinolinyloxy)ethyl 3-(1-piperazinyl)-2-pyrazinyl ether], the melting point was in the range of 132 to 135 °C.

`c1cnc2ccc(OCCOc3nccnc3N3CCNCC3)cc2c1` (as salt: maleate) [Example 136, 2-(6-Quinolinyloxy)ethyl 3-(1-piperazinyl)-2-pyrazinyl ether] gave a melting point of 167 to 169 °C.

The compound `c1cnc2cc(OCCOc3nccnc3N3CCNCC3)ccc2c1` (as salt: maleate) [Example 137, 2-(7-Quinolinyloxy)ethyl 3-(1-piperazinyl)-2-pyrazinyl ether] displayed a melting point of 156 to 158 °C.

The compound `COc1ccc(C)cc1OCCOc1nccnc1N1CCNCC1` (as salt: maleate) [Example 144, 2-[2-(2-Methoxy-5-methylphenoxy)ethoxy]-3-(1-piperazinyl)pyrazine] returned a melting point of 148 to 149 °C.

Take `Nc1cccc2ccc(OCCOc3nccnc3N3CCNCC3)cc12` (as salt: maleate) [Example 145, 7-(2-{[3-(1-piperazinyl)-2-pyrazinyl]oxy}ethoxy)-1-naphthylamine]: the melting point was 120 °C (dec.).

The compound `c1ccc(OCCOc2nccnc2N2CCNCC2)nc1` (as salt: maleate) [Example 152, 2-(2-Pyridyloxy)ethyl 3-(1-piperazinyl)-2-pyrazinyl ether] showed a melting point of 130 to 132 °C.

In turn, `c1ccc2c(OCCOc3nccnc3N3CCNCC3)csc2c1` (as salt: maleate) [Example 156, 2-[2-(1-Benzothien-3-yloxy)ethoxy]-3-(1-piperazinyl)pyrazine] registered a melting point of 147 to 149 °C.

For `CC1(C)Cc2cccc(OCCOc3nccnc3N3CCNCC3)c2O1` (as salt: maleate) [Example 158, 2-(2,3-Dihydro-2,2-dimethyl-7-benzofuranyloxy)ethyl 3-(1-piperazinyl)-2-pyrazinyl ether], the melting point is 156 to 157 °C.

Take `c1cc(OCCOc2nccnc2N2CCNCC2)c2ncoc2c1` (as salt: maleate) [Example 159, 2-(1,3-Benzoxazol-4-yloxy)ethyl 3-(1-piperazinyl)-2-pyrazinyl ether]: the melting point was in the range of 191 to 193 °C.

Regarding `c1cncc(OCCOc2nc3ccccc3nc2N2CCNCC2)c1` (as salt: maleate) [Example 162, 2-[2-(3-Pyridinyloxy)ethoxy]-3-(1-piperazinyl)quinoxaline], the melting point fell in the range of 137 to 139 °C.

`Fc1cc2nc(OCCOc3cccnc3)c(N3CCNCC3)nc2cc1F` (as salt: maleate) [Example 163, 2-[2-(3-Pyridinyloxy)ethoxy]-3-(1-piperazinyl)-6,7-difluoroquinoxaline] registered a melting point of 110 to 115 °C.

Regarding `Clc1cc2nc(OCCOc3cccnc3)c(N3CCNCC3)nc2cc1Cl` (as salt: maleate) [Example 164, 2-[2-(3-Pyridinyloxy)ethoxy]-3-(1-piperazinyl)-6,7-dichloroquinoxaline], the melting point fell in the range of 187 to 189 °C.

The compound `c1cncc(OCCOc2nc3cscc3nc2N2CCNCC2)c1` (as salt: maleate) [Example 165, 2-[2-(3-Pyridinyloxy)ethoxy]3-(1-piperazinyl)thieno[3,4-b]pyrazine] showed a melting point of 152 to 156 °C.

In turn, `c1cc2c(c(OCCOc3nccnc3N3CCNCC3)c1)OCC2` (as salt: maleate) [Example 186, 2-(2,3-Dihydrobenzofuran-7-yloxy)ethyl 3-(1-piperazinyl)-2-pyrazinyl ether] returned a melting point of 149 to 154 °C.

`Clc1ccc(OCCOc2nccnc2N2CCNCC2)cn1` (as salt: maleate) [Example 203, 2-{2-[(6-Chloro-3-pyridinyl)oxy]ethoxy}-3-(1-piperazinyl)pyrazine] displayed a melting point of 145.9 to 146.3 °C.

With `COc1ccc(OCCOc2nccnc2N2CCNCC2)cn1` (as salt: maleate) [Example 204, 2-{2-[(6-Methoxy-3-pyridinyl)oxy]ethoxy}-3-(1-piperazinyl)pyrazine], the melting point was 151.8 to 152.6 °C.

In turn, `c1cncc(OCCOc2nsnc2N2CCNCC2)c1` (as salt: maleate) [Example 209, 1-{4-[2-(3-Pyridinyloxy)ethoxy]-1,2,5-thiadiazol-3-yl}piperazine] yielded a melting point of 116 to 118 °C.

`COc1ccccc1CCCOc1nccnc1N1CCNCC1` (as salt: maleate) [Example 211, 2-[3-(2-Methoxyphenyl)propoxy]-3-(1-piperazinyl)pyrazine] came in with a melting point of 132 to 133 °C.

In the case of `COc1ccccc1/C=C/COc1nccnc1N1CCNCC1` (as salt: maleate) [Example 212, 2-{[(2E)-3-(2-Methoxyphenyl)-2-propenyl]oxy}-3-(1-piperazinyl)pyrazine], the melting point is 136 °C (dec.).

With `c1ccc2c(c1)CCC(COc1nc3ccccc3nc1N1CCNCC1)O2` (centres unmarked) (as salt: salt) [Example 168, 2-(3,4-Dihydro-2H-chromen-2-ylmethoxy)-3-(1-piperazinyl)quinoxaline], the melting point was in the range of 202 to 204 °C.

For `COc1cccc(OCCOc2nccnc2N2CCNCC2)c1` (as salt: toluenesulfonate) [Example 102, 2-[2-(3-Methoxyphenoxy)ethoxy]-3-(1-piperazinyl)pyrazine], the melting point is 131 to 133 °C.

For the compound `Fc1cc(F)cc(OCCOc2nccnc2N2CCNCC2)c1` (as salt: toluenesulfonate) [Example 114, 2-[2-(3,5-Difluorophenoxy)ethoxy]-3-(1-piperazinyl)pyrazine], the melting point was in the range of 118 to 119 °C.

For `Brc1cccc(OCCOc2nccnc2N2CCNCC2)c1` [Example 37, 2-(3-Bromophenoxy)ethyl 3-(1-piperazinyl)-2-pyrazinyl ether], the melting point was 62 to 63 °C.

`Clc1ccc(OCCOc2nc3ccccc3nc2N2CCNCC2)cc1` [Example 39, 2-[2-(4-Chlorophenoxy)ethoxy]-3-(1-piperazinyl)quinoxaline] showed a melting point of 108 to 112 °C.

`c1cc(OCCOc2nccnc2N2CCNCC2)c2c(c1)OCCO2` [Example 79, 2-(2,3-Dihydro-1,4-benzodioxin-5-yloxy)ethyl 3-(1-piperazinyl)-2-pyrazinyl ether] showed a melting point of 98 to 99 °C.

Take `Fc1cccc(F)c1OCCOc1nccnc1N1CCNCC1` [Example 83, 2-(2,6-Difluorophenoxy)ethyl 3-(1-piperazinyl)-2-pyrazinyl ether]: the melting point is 101 to 102 °C.

Regarding `FC(F)(F)c1ccccc1OCCOc1nccnc1N1CCNCC1` [Example 91, 2-(2-Trifluoromethylphenoxy)ethyl 3-(1-piperazinyl)-2-pyrazinyl ether], the melting point lay in the range of 79 to 80 °C.

`c1ccc(-c2ccccc2OCCOc2nccnc2N2CCNCC2)cc1` [Example 97, 2-[(1,1′Biphenyl)-2-yloxy]ethyl 3-(1-piperazinyl)-2-pyrazinyl ether] registered a melting point of 101 to 103 °C.

Turning to `c1cnc2c(OCCOc3nccnc3N3CCNCC3)cccc2c1` [Example 138, 2-(8-Quinolinyloxy)ethyl 3-(1-piperazinyl)-2-pyrazinyl ether], the melting point lay within 98 to 100 °C.

By melting point is commonly meant the temperature, or range, at which the solid turns liquid.
